Assay results as given in patent publication US6949519B2, “Macrolide solvates” (Sandoz AG, priority 2000, dated 2005).

Columns and labels:
Assay type in all cases: physicochemical
[1] = Stability and comparison example: samples set out for 6 weeks at 75% relative humidity at elevated temperature; potency and degradation by HPLC, water by Karl Fischer, X-ray powder diffraction; settings: for Degradation (%) / POTENCY (%): HPLC, anhydrous basis; for POTENCY (%): 75% relative humidity, temperature of 400 (so in the source); for WATER (%): Karl Fischer
Description: • 5.3% of water, and • 2.8% of water are set out for 6 weeks to an environment having a relative humidity of 75% at a temperature of 400. Potency (content) of azithromycin, azithromycin degradation and water content in the samples are determined in week 0, week 2, week 4 and week 6. Potency and degradation are determined on azithromycin anhydrous basis by HPLC. The water content is determined by the Karl Fischer method. Results are Obtained • for azithromycin comprising 5.3% of water as set out in TABLE 1 below, • for azithromycin comprising 2.8% of water as set out in TABLE 2 below:
The potency of azithromycin in % of each sample within the corresponding time period is set out in TABLE 1 and TABLE 2 under “Potency (%)”.
The degradation of azithromycin in % of each sample within the corresponding time period is set out in TABLE 1 and TABLE 2 under “Degradation (%).
The water content in % of each sample within the corresponding time period is indicated in TABLE 1 and TABLE 2 under “Water (%)”.

[2] = Water content (K. Fischer) and X-ray powder diffraction pattern at room temperature under normal air humidity conditions
Description: In the following examples all temperatures are in degree Centigrade and are uncorrected. The X-ray powder diffraction pattern of azithromycin in the form of a monohydrate obtained according to the following example corresponds to that of azithromycin in the form of a monohydrate. […] Water content (% w/w) is determined by the K. Fischer
To a suspension of 20 g of azithromycin in 83 ml of water, HCl is added until dissolution occurs. The solution obtained is filtrated, in order to remove undissolved particles, and the filtrate obtained is added dropwise to 103 ml of water whilst adjusting the pH to 10 to 11 by addition of 20% NaOH at a temperature of ca. 55° C. A solid precipitates, is filtrated off, washed and dried until a water content of 4.0 to 6.5% is achieved. 18.4 g of azithromycin in the form of a monohydrate in crystalline form are obtained. Water content: 6.0% Water content after 2 days at room temperature under normal air humidity conditions: 6.3% Water content after 13 days at room temperature under normal air humidity conditions: 6.3%

[3] = Stability and comparison example: samples set out for 6 weeks at 75% relative humidity at elevated temperature; potency and degradation by HPLC, water by Karl Fischer, X-ray powder diffraction; settings: 6 weeks under normal air humidity conditions at elevated temperatures

Compound	Degradation (%) ([1]; week 6, 75% humidity, 40° C.)	POTENCY (%) ([1]; week 0)	WATER (%) ([1]; week 0)	Degradation (%) ([1]; week 2, 75% humidity, 40° C.)	WATER (%) ([1]; week 2, 75% humidity, 40° C.)	Degradation (%) ([1]; week 4, 75% humidity, 40° C.)	WATER (%) ([1]; week 4, 75% humidity, 40° C.)	WATER (%) ([1]; week 6, 75% humidity, 40° C.)	POTENCY (%) ([1]; week 6)	further results
CC[C@H]1OC(=O)[C@H](C)[C@@H](O[C@H]2C[C@@](C)(OC)[C@@H](O)[C@H](C)O2)[C@H](C)[C@@H](O[C@@H]2O[C@H](C)C[C@H](N(C)C)[C@H]2O)[C@](C)(O)C[C@@H](C)CN(C)[C@H](C)[C@@H](O)[C@]1(C)O [azithromycin according to the present invention] [9-deoxo-9a-aza-9a-methyl-9a-homoerythromycin A]	~0.1	–	–	–	–	–	–	–	–	Water content compared with week 0 ([1]; 40° C., 75% humidity, within 4 weeks and even 6 weeks): remains substantially the same as in week 0; Time for which the X-ray powder diffraction pattern (crystalline structure) is maintained ([1]; normal air humidity conditions, even at elevated temperatures): at least 2 weeks
CC[C@H]1OC(=O)[C@H](C)[C@@H](O[C@H]2C[C@@](C)(OC)[C@@H](O)[C@H](C)O2)[C@H](C)[C@@H](O[C@@H]2O[C@H](C)C[C@H](N(C)C)[C@H]2O)[C@](C)(O)C[C@@H](C)CN(C)[C@H](C)[C@@H](O)[C@]1(C)O [azithromycin comprising 2.8% of water, 9-deoxo-9a-aza-9a-methyl-9a-homoerythromycin A, reference compound]	6.6	99.7	2.8	2.5	2.8	6.1	3.3	3.6	91.6	Degradation (%) ([1]; week 2, 75% humidity, 40° C., listed as azithromycin in the form of a monohydrate having a water content of 2.8% to 3.6%): 2.5%; Degradation (%) ([1]; week 6, 75% humidity, 40° C., listed as azithromycin in the form of a monohydrate having a water content of 2.8% to 3.6%): ~7%
CC[C@H]1OC(=O)[C@H](C)[C@@H](O[C@H]2C[C@@](C)(OC)[C@@H](O)[C@H](C)O2)[C@H](C)[C@@H](O[C@@H]2O[C@H](C)C[C@H](N(C)C)[C@H]2O)[C@](C)(O)C[C@@H](C)CN(C)[C@H](C)[C@@H](O)[C@]1(C)O [Example, 9-deoxo-9a-aza-9a-methyl-9a-homoerythromycin A]	–	–	–	–	–	–	–	–	–	Water content ([2]; after 2 days at room temperature under normal air humidity conditions): 6.3%; Water content ([2]; after 13 days at room temperature under normal air humidity conditions): 6.3%; Water content ([2]; as obtained after drying, % w/w, K. Fischer): 6.0%; X-ray diffraction powder pattern ([2]; on day 1, on day 2 and on day 13): corresponds to the X-ray diffraction powder pattern of azithromycin in the form of a monohydrate; Crystallinity and X-ray powder diffraction pattern on storage [3]: maintains its crystallinity and its X-ray powder diffraction pattern; Degradation products on storage [3]: contains substantially no degration products
CC[C@H]1OC(=O)[C@H](C)[C@@H](O[C@H]2C[C@@](C)(OC)[C@@H](O)[C@H](C)O2)[C@H](C)[C@@H](O[C@@H]2O[C@H](C)C[C@H](N(C)C)[C@H]2O)[C@](C)(O)C[C@@H](C)CN(C)[C@H](C)[C@@H](O)[C@]1(C)O [azithromycin comprising 5.3% of water, 9-deoxo-9a-aza-9a-methyl-9a-homoerythromycin A]	0.1	99.8	5.3	0.1	5.3	0.1	5.3	5.3	99.5	POTENCY (%) ([1]; week 2): 98.9%; POTENCY (%) ([1]; week 4): 99.5%
